Test results from patent US8815879B2, “Substituted 4-(selenophen-2(or-3)-ylamino)pyrimidine compounds and methods of use thereof” (Kasina Laila Innova Pharmaceuticals Private Limited, priority 2010, dated 2014).
Where a name gives a salt, the structure may show the parent alone.

Columns and labels:
[1] = test system: human colorectal carcinoma HT29 cells; assay: MTT based cell proliferation assay, HT29; conditions: for inhibition at 10 µg/mL / IC50: Homo sapiens, HT-29, 72 h; for inhibition at 10 µg/mL: read-out: Cell Proliferation Inhibition in HT29 (Colon carcinoma), % at highest screening dose; for IC50: read-out: Cell Proliferation Inhibition in HT29 (Colon carcinoma), IC50
[2] = test system: human lung carcinoma A549 cells; assay: MTT based cell proliferation assay, A549; conditions: for inhibition at 10 µg/mL / IC50: Homo sapiens, A549, 72 h; for inhibition at 10 µg/mL: read-out: Cell Proliferation Inhibition in A549 (Lung carcinoma), % at highest screening dose; for IC50: read-out: Cell Proliferation Inhibition in A549 (Lung carcinoma), IC50
[3] = test system: human prostate DU145 cells; assay: MTT based cell proliferation assay, DU145; conditions: for inhibition at 10 µg/mL / IC50: Homo sapiens, DU-145, 72 h; for inhibition at 10 µg/mL: read-out: Cell Proliferation Inhibition in DU145 (Prostate carcinoma), % at highest screening dose; for IC50: read-out: Cell Proliferation Inhibition in DU145 (Prostate carcinoma), IC50
[4] = test system: human breast carcinoma (estrogen receptor negative) MDA-MB-231 cells; assay: cells; type: cell-based
Description: (§1) MTT [3-(4,5-dimethylthiazol-2-yl)-2,5-diphenyltetrazolium bromide] incorporation based cell proliferation assay was performed using standard procedure. […] The assay was carried out according to the instructions provided by the vendor. […] Vehicle control culture wells received only a maximum of 0.5% DMSO. Thereafter, 0.5 mg/ml of MTT reagent was added to each well and the microplate was incubated further for 4 h at 37° C. in presence of 5% CO2. Finally, the cells were solubilized by adding solubilizing solution and allowed to incubate at 37° C. overnight. After complete solubilization of the formazan crystals the absorbance was read at 540 nm in a microplate reader (BioRad, USA).
(§2) The evaluation of cell proliferation inhibitory activities of the compounds was done in two phases—(1) Screening, and (2) half-maximal inhibitory concentration (IC50) determination. In the screening phase, the cells were treated with three different concentrations e.g. 1, 5 and 10 μg/ml.

[5] = test system: HepG2 (Hepatocellular Carcinoma); assay: cells; type: cell-based
Description: as §1, §2

[6] = test system: human cervical carcinoma HeLa cells; assay: cells; type: cell-based
Description: as §1, §2

Question: Which inhibition at 10 µg/mL [1] does the source give for `CC(C)(C)c1cc2c(Nc3cc(C(C)(C)C)[se]c3C(N)=O)ncnc2o1` [Compound 16, 3-(6-tert-butylfuro[2,3-d]pyrimidin-4-ylamino)-5-tert-butylselenophene-2-carboxamide] here?
Answer: Its inhibition at 10 µg/mL is 20.3%.

Question: What about the inhibition at 10 µg/mL [2] of the same molecule?
Answer: Its inhibition at 10 µg/mL is 1.6%.

Question: What about the melting point of the same molecule?
Answer: The melting point was 288 to 290 °C.

Question: And the inhibition at 10 µg/mL [3]?
Answer: The inhibition at 10 µg/mL was 2.81%.

Question: With `COc1cc2ncnc(Nc3cc(C(C)(C)C)[se]c3[N+](=O)[O-])c2cc1OCCCN1CCOCC1` (as salt: HCl) [Compound 4, [5-(tert-butyl)-2-nitroselenophen-3-yl][7-methoxy-6-(3-morpholino-propoxy)quinazolin-4-yl]amine] as the molecule, how does the melting point read?
Answer: Its melting point is 240 to 242 °C.

Question: For `COC(=O)c1cc(Nc2ncnc3[nH]c(C)c(C)c23)c(C)[se]1` [Compound 17, methyl 4-(5,6-dimethyl-7H-pyrrolo[2,3-d]pyrimidin-4-ylamino)-5-methylselenophene-2-carboxylate], which inhibition at 10 µg/mL [1] is on record?
Answer: Its inhibition at 10 µg/mL is 4.54%.

Question: And the inhibition at 10 µg/mL [2]?
Answer: Its inhibition at 10 µg/mL is 2.66%.

Question: What about the melting point of the same molecule?
Answer: The melting point was 238 to 240 °C.

Question: What about the inhibition at 10 µg/mL [3] of the same molecule?
Answer: The inhibition at 10 µg/mL was 7.62%.

Question: Which melting point does the source give for `COc1cc2ncnc(Nc3cc(-c4ccccc4)[se]c3C(N)=O)c2cc1OCCCN1CCOCC1` (as salt: HCl) [Compound 7, 3-(6-(3-morpholinopropoxy)-7-methoxyquinazolin-4-ylamino)-5-phenyl-selenophene-2-carboxamide] here?
Answer: Its melting point is 266 to 270 °C.

Question: Which results are given for `COc1cc2ncnc(Oc3cc(C(C)(C)C)[se]c3C(N)=O)c2cc1OC` [Compound 29, 3-(6,7-dimethoxyquinazolin-4-yloxy)-5-tert-butylselenophene-2-carboxamide]?
Answer: inhibition at 10 µg/mL [1]: 44.6%; inhibition at 10 µg/mL [2]: 15.6%; melting point: 220 to 224 °C; inhibition at 10 µg/mL [3]: 43%

Question: With `COc1cc2ncnc(Nc3cc(C(N)=O)[se]c3C)c2cc1OCCCN1CCOCC1` (as salt: HCl) [Compound 11, 4-(6-(3-morpholinopropoxy)-7-methoxyquinazolin-4-ylamino)-5-methylselenophene-2-carboxamide] as the molecule, how does the melting point read?
Answer: The melting point was 252 to 254 °C.

Question: For `COc1cc2c(Nc3cc(C(C)(C)C)[se]c3C(N)=O)ncnc2cc1OCCCN1CCOCC1` (as salt: HCl) [Compound 5, 3-(7-(3-morpholinopropoxy)-6-methoxyquinazolin-4-ylamino)-5-tert-butylselenophene-2-carboxamide], which melting point is on record?
Answer: The melting point was 262 to 264 °C.

Question: For `COc1cc2ncnc(Nc3cc(C(C)(C)C)[se]c3C(N)=O)c2cc1OC` [Compound 1, 3-(6,7-dimethoxyquinazolin-4-ylamino)-5-tert-butylselenophene-2-carboxamide], which IC50 [1] is on record?
Answer: The IC50 was 5.12 µM.

Question: And the “potency in vitro compared to gefitinib (Iressa), HT29” value ([1]; ratio of IC50 values)?
Answer: The value was “several times better potency”.

Question: What about the IC50 [2] of the same molecule?
Answer: The IC50 was 9.08 µM.

Question: What about the “potency in vitro compared to gefitinib (Iressa), A549” value ([2]; ratio of IC50 values) of the same molecule?
Answer: The value was “approximately two times”.

Question: And the melting point?
Answer: Its melting point is 234 to 238 °C.

Question: What about the IC50 [3] of the same molecule?
Answer: The IC50 was 3.6 µM.

Question: And the “potency in vitro compared to gefitinib (Iressa), DU145” value ([3]; ratio of IC50 values)?
Answer: The value was “several times better potency”.

Question: For `COC(=O)c1cc(Nc2ncnc3cc(OC)c(OCCCN4CCOCC4)cc23)c(C)[se]1` (as salt: HCl) [Compound 10, methyl 4-(6-(3-morpholinopropoxy)-7-methoxyquinazolin-4-ylamino)-5-methylselenophene-2-carboxylate], which melting point is on record?
Answer: The melting point was 198 to 200 °C.

Question: Which IC50 [1] does the source give for `COc1cc2ncnc(N(C)c3cc(C(C)(C)C)[se]c3C(N)=O)c2cc1OC` [Compound 21, 3-(N-(6,7-dimethoxyquinazolin-4-yl)-N-methylamino)-5-tert-butylseleno-phene-2-carboxamide] here?
Answer: The IC50 was 3.88 µM.

Question: And the IC50 [2]?
Answer: The IC50 was 3.59 µM.

Question: And the melting point?
Answer: The melting point was 256 to 258 °C.

Question: What about the IC50 ([4]; Homo sapiens, MDA-MB-231, MTT, read-out: Cell proliferation inhibition (IC50) in MDA-MB-231 (Breast Carcinoma)) of the same molecule?
Answer: Its IC50 is 2.86 µM.

Question: What about the “potency compared to Iressa, MDA-MB-231” value ([4]; ratio of IC50 values) of the same molecule?
Answer: Its value is “sixteen”.

Question: And the IC50 ([5]; Homo sapiens, HepG2, MTT, read-out: Cell proliferation inhibition (IC50) in HepG2 (Hepatocellular Carcinoma))?
Answer: Its IC50 is 2.33 µM.

Question: And the “potency compared to Iressa, HepG2” value ([5]; ratio of IC50 values)?
Answer: Its value is “fifteen”.

Question: And the IC50 ([6]; Homo sapiens, HeLa, MTT, read-out: Cell proliferation inhibition (IC50) in HeLa (Cervical Carcinoma))?
Answer: The IC50 was 2.97 µM.

Question: And the “potency compared to Iressa, HeLa” value ([6]; ratio of IC50 values)?
Answer: Its value is “seventeen times”.

Question: What about the IC50 [3] of the same molecule?
Answer: Its IC50 is 3.95 µM.

Question: Which melting point does the source give for `COC(=O)c1cc(Nc2nc(C)nc3cc(OC)c(OC)cc23)c(C)[se]1` (as salt: HCl) [Compound 25, methyl 4-(6,7-dimethoxy-2-methylquinazolin-4-ylamino)-5-methylselenophene-2-carboxylate] here?
Answer: The melting point was 276 to 280 °C.

Question: Which melting point does the source give for `COc1cc2nc(CN(C)C)nc(Nc3cc(C(C)(C)C)[se]c3C(N)=O)c2cc1OC` (as salt: HCl) [Compound 27] here?
Answer: The melting point was 226 to 228 °C.

Question: Which results are given for `CC(C)(C)c1cc(Nc2ncnc3oc(-c4ccccc4)cc23)c(C(N)=O)[se]1` [Compound 15, 3-(6-phenylfuro[2,3-d]pyrimidin-4-ylamino)-5-tert-butylselenophene-2-carboxamide]?
Answer: inhibition at 10 µg/mL [1]: 25.4%; inhibition at 10 µg/mL [2]: 5.87%; melting point: 280 to 282 °C; inhibition at 10 µg/mL [3]: 3.44%

Question: Which melting point does the source give for `COCCOc1cc2ncnc(Nc3cc(C(C)(C)C)[se]c3C(N)=O)c2cc1OCCOC` (as salt: HCl) [Compound 6, 3-(6,7-bis(2-methoxyethoxy)quinazolin-4-ylamino)-5-tert-butylselenophene-2-carboxamide] here?
Answer: The melting point was 224 to 226 °C.

Question: Which inhibition at 10 µg/mL [1] does the source give for `CSc1cc2ncnc(Nc3cc(C(C)(C)C)[se]c3C(N)=O)c2s1` [Compound 14, 3-(6-(methylthio)thiopheno[3,2-d]pyrimidin-4-ylamino)-5-tert-butyl-selenophene-2-carboxamide] here?
Answer: Its inhibition at 10 µg/mL is 53.5%.

Question: What about the inhibition at 10 µg/mL [2] of the same molecule?
Answer: Its inhibition at 10 µg/mL is 3.54%.

Question: What about the melting point of the same molecule?
Answer: Its melting point is 260 to 262 °C.

Question: What about the inhibition at 10 µg/mL [3] of the same molecule?
Answer: Its inhibition at 10 µg/mL is 7.81%.

Question: With `CC(C)(C)c1cc(Nc2ncnc3ccc(N)cc23)c(C(N)=O)[se]1` (as salt: HCl) [Compound 8, 3-(6-aminoquinazolin-4-ylamino)-5-tert-butylselenophene-2-carboxamide] as the molecule, how does the melting point read?
Answer: The melting point was 170 to 172 °C.

Question: For `COc1cc2ncnc(N(CCCl)c3cc(C(C)(C)C)[se]c3C(N)=O)c2cc1OCCCN1CCOCC1` (as salt: HCl) [Compound 23, 3-(N-(6-(3-morpholinopropoxy)-7-methoxyquinazolin-4-yl)-N-(2-chloroethyl)amino)-5-tert-butylselenophene-2-carboxamide], which melting point is on record?
Answer: Its melting point is 190 to 192 °C.

Question: Which melting point does the source give for `CCc1c(C)[se]c2ncnc(Nc3cc(C(C)(C)C)[se]c3C(N)=O)c12` (as salt: HCl) [Compound 19, 3-(5-ethyl-6-methylselenopheno[2,3-d]pyrimidin-4-ylamino)-5-tert-butylselenophene-2-carboxamide] here?
Answer: The melting point was 278 to 280 °C.

Question: Which melting point does the source give for `CC(C)(C)c1cc(Nc2ncnc3cc(C(C)(C)C)[se]c23)c(C(N)=O)[se]1` (as salt: HCl) [Compound 18, 3-(6-tert-butylselenopheno[3,2-d]pyrimidin-4-ylamino)-5-tert-butylselenophene-2-carboxamide] here?
Answer: Its melting point is 212 to 214 °C.

Question: Which melting point does the source give for `COc1cc2nc(C)nc(Nc3cc(C(C)(C)C)[se]c3C(N)=O)c2cc1OC` (as salt: HCl) [Compound 24, 3-(6,7-dimethoxy-2-methylquinazolin-4-ylamino)-5-tert-butylselenophene-2-carboxamide] here?
Answer: The melting point was 282 to 284 °C.

Question: For `CCc1c(C)sc2ncnc(Nc3cc(C(C)(C)C)[se]c3C(N)=O)c12` (as salt: HCl) [Compound 13, 3-(5-ethyl-6-methylthiopheno[2,3-d]pyrimidin-4-ylamino)-5-tert-butylselenophene-2-carboxamide], which melting point is on record?
Answer: Its melting point is 258 to 260 °C.

Question: Which melting point does the source give for `CC(C)(C)c1cc(Nc2ncnc3ccc(NC(=O)CCl)cc23)c(C(N)=O)[se]1` (as salt: HCl) [Compound 9, 3-(6-(2-chloroacetamido)quinazolin-4-ylamino)-5-tert-butylselenophene-2-carboxamide] here?
Answer: The melting point was 276 to 278 °C.

Question: Which melting point does the source give for `COc1cc2ncnc(Nc3cc(C(C)(C)C)[se]c3C(N)=O)c2cc1OCCCN1CCOCC1` (as salt: HCl) [Compound 3, 3-(6-(3-morpholinopropoxy)-7-methoxyquinazolin-4-ylamino)-5-tert-butylselenophene-2-carboxamide] here?
Answer: The melting point was 262 to 264 °C.

Question: Which melting point does the source give for `CC(C)(C)c1cc(Nc2ncnc3ncccc23)c(C(N)=O)[se]1` (as salt: HCl) [Compound 12, 5-tert-butyl-3-(pyridino[2,3-d]pyrimidin-4-ylamino)selenophene-2-carboxamide] here?
Answer: Its melting point is 242 to 244 °C.

Question: For `COc1cc2nc(-c3ccc(Cl)cc3)nc(Nc3cc(C(C)(C)C)[se]c3C(N)=O)c2cc1OC` [Compound 28, 3-(2-(4-chlorophenyl)-6,7-dimethoxyquinazolin-4-ylamino)-5-tert-butylselenophene-2-carboxamide], which inhibition at 10 µg/mL [1] is on record?
Answer: Its inhibition at 10 µg/mL is 2.69%.

Question: What about the inhibition at 10 µg/mL [2] of the same molecule?
Answer: The inhibition at 10 µg/mL was 9%.

Question: And the melting point?
Answer: The melting point was 268 to 270 °C.

Question: And the inhibition at 10 µg/mL [3]?
Answer: Its inhibition at 10 µg/mL is 10.4%.
